Measurements published in PMC3973950, “Synthesis of 5-arylidine amino-1,3,4-thiadiazol-2-[(N-substituted benzyol)]sulphonamides endowed with potent antioxidants and anticancer activity induces growth inhibition in HEK293, BT474 and NCI-H226 cells” (Medicinal Chemistry Research, 2013).

How the values were obtained:
[1] = Lipid peroxidation inhibitory activity (egg lecithin liposomes, TBA); format: biochemical; conditions: Conc. ± SD; standard ascorbic acid; read-out: IC50 inhibitory concentration, Lipid peroxidation
Protocol: Egg lecithin (3 mg/mL phosphate buffer, pH 7.4) was sonicated in an ultrasonic sonicator for 10 min to ensure proper liposome formation. Test samples or standard, ascorbic acid (100 μL) of different concentrations (10, 20, 30, 40 50 and 100 μg/mL) was added to liposome mixture (1 mL); the control was without test sample. Lipid peroxidation was induced by adding ferric chloride (10 μL, 400 mM) and L-ascorbic acid (10 μL, 200 mM). After incubation for 1 h at 37 °C, the reaction was stopped by adding hydrochloric acid (2 mL, 0.25 N) containing trichloroacetic acid (150 mg/mL), thiobarbituric acid (3.75 mg/mL) and butylated hydroxy anisole (0.50 mg/mL). The reaction mixture was subsequently boiled for 15 min, cooled and centrifuged at 1,000 rpm for 15 min, and the absorbance of the supernatant was measured at 532 nm (Duh and Yen, [1997]). The % inhibition at different concentrations was calculated by the following formula %Inhibition=[1-(Vt/Vc)]×100 where V t = mean absorption of test compound, V c = mean absorption of control.
The IC50 (nM/mL) value was derived from the % inhibition at different concentrations.

[2] = test system: root meristem cells of Allium cepa; experiment: In vitro antimitotic activity and cytogenetic analysis, Allium cepa meristem root model; format: cell-based
Method in brief: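 Onion roots (about 2–2.5 cm, five bulbs per sample) exposed to compound at 1 mg/mL at 22 ± 1 °C, with distilled water as negative and EMS (2 × 10^−2 M) as positive control. After 24 h, orcein-stained root tips were scored for mitotic index, chromatin aberrations and micronuclei per 1,000 cells. Root length at 72 h served as the general toxicity index, expressed as percentage of controls.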

[3] = test system: BT474 (breast cancer cell line); experiment: In vitro cytotoxicity by MTT assay, BT474; format: cell-based; conditions: Homo sapiens, 72 h, read-out: % cytotoxicity (100 − % cell survival) of BT474 cell line; for cytotoxicity at 0.005 µM: BT-474, 0.005 μM; for cytotoxicity at 0.015 µM: BT-474, 0.015 μM; for cytotoxicity at 0.045 µM: BT-474, 0.045 μM; for cytotoxicity at 0.13 µM: BT-474, 0.13 μM; for cytotoxicity at 0.41 µM: BT-474, 0.41 μM; for cytotoxicity at 1.23 µM: BT-474, 1.23 μM; for cytotoxicity at 3.7 µM: BT-474, 3.7 μM; for cytotoxicity at 11.11 µM: BT-474, 11.11 μM; for cytotoxicity at 33.33 µM: BT-474, 33.33 μM; for cytotoxicity at 100 µM: BT-474, 100 μM
Method in brief: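 Monolayers seeded at […] (about 10,000 per well) were treated after 24 h with the synthesized compounds and incubated three days. Viability was taken from MTT reduction, with formazan measured at 490 nm.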

[4] = compounds 1 mg/mL, PC (EMS) 2 × 10^−2 M

Compound | IC50 [1] [µM] | Aberrant cells (%) ± SEM [2, 4] [%] | Chromosome breaks (%) ± SEM [2, 4] [%] | MNC (‰) ± SEM (micronuclei per 1,000 cells) [2, 4] | Polar deviations (%) ± SEM [2, 4] [%] | Stickiness (%) ± SEM [2, 4] [%] | MI (%) ± SEM (mitotic index) ([2]; compounds 1 mg/mL, PC (EMS) 2 × 10^−2 M, lower MI = higher activity, negative control 6.22) [%] | cytotoxicity at 0.005 µM [3] [%] | cytotoxicity at 0.015 µM [3] [%] | cytotoxicity at 0.045 µM [3] [%] | cytotoxicity at 0.13 µM [3] [%] | cytotoxicity at 0.41 µM [3] [%] | cytotoxicity at 1.23 µM [3] [%] | cytotoxicity at 3.7 µM [3] [%] | cytotoxicity at 11.11 µM [3] [%] | cytotoxicity at 33.33 µM [3] [%] | cytotoxicity at 100 µM [3] [%] | melting point [°C] | average root length ([2]; after 72 h of treatment, negative control 3.93 cm) [cm]
O=C(NS(=O)(=O)c1nnc(N=Cc2ccc(O)cc2)s1)c1ccccc1 [Compound 9e, N-({5-[(4-Hydroxybenzylidene)amino]-1,3,4-thiadiazol-2-yl}sulfonyl)benzamide] | 134 ± 14.7 | 26.74 ± 6.56 | 2.72 ± 0.94 | 0.21 ± 0.06 ‰ | 8.41 ± 1.35 | 9.88 ± 1.46 | 1.27 ± 0.11 | 25.2 | 26.4 | 27.3 | 28.9 | 29.9 | 31.9 | 37.9 | 41.8 | 47.5 | 56.2 | 178 to 180 | 
O=C(NS(=O)(=O)c1nnc(N=Cc2ccccc2O)s1)c1ccccc1 [Compound 9f, N-({5-[(2-Hydroxybenzylidene)amino]-1,3,4-thiadiazol-2-yl}sulfonyl)benzamide] | 204 ± 20.1 | 33.41 ± 9.47 | 1.47 ± 0.13 | 0.39 ± 0.20 ‰ | 7.33 ± 2.52 | 21.96 ± 7.22 |  | 30.6 | 32.6 | 33.9 | 34.8 | 34.8 | 35.5 | 35.8 | 36.1 | 38.2 | 38.7 | 220 to 222 | 1.06
